Molecular target: 6×His-CRBN-DDB1 protein (Homo sapiens (Human), UniProt Q96SW2)
Test: CRBN Fluorescence Polarization Assay
Assay type: binding
Conditions: competitive fluorescence polarization; Cy5-O-Len probe 30 nM, 6×His-CRBN-DDB1 200 nM; 1 hour at room temperature; mean of three independent determinations; read-out: CRBN FP (IC50)
Experimental: In this competitive fluorescent polarization assay Cy5 conjugated lenalidomide analog (Cy5-O-Len)^13 was used as a fluorescent probe. 6×His-CRBN-DDB1 protein (200 nM) and Cy5-O-Len probe (30 nM) were combined in 20 mM HEPES pH 7, 150 mM NaCl, 0.005% Tween-20 assay buffer. 20 μL of this assay cocktail was dispensed into wells of Corning 3821 black 384-well plates. Compounds were transferred to the assay plate from a dose-response plate using a Pintool on a Biomek FXP Laboratory Automation Workstation (Beckman Coulter). The plates were incubated in the dark for 1 hour at room temperature and then read on an Envision plate reader (PerkinElmer, Massachusetts, USA). IC50 values were determined using a proprietary software RISE (Robust Investigation of Screening Experiments), developed in house on the Pipeline Pilot platform (Biovia, v. 17.2.0). Data represent the mean of three independent determinations.
Cereblon binding activity was determined as described herein above, and the results are provided below in Table 2 for representative disclosed compounds. Compound number (“Cmpd No.”) refers to the compound number (and associated compound information such as structure, name, etc.) as provided in Table 1. In Table 2 below: cereblon binding IC50 values are categorized as follows: “A” represents IC50 value<1 μM, “B” represents IC50 value between 1 and 10 μM, and “C” represents IC50 value>10 μM.

6×His-CRBN-DDB1 protein, sequence (Q96SW2 whole entry): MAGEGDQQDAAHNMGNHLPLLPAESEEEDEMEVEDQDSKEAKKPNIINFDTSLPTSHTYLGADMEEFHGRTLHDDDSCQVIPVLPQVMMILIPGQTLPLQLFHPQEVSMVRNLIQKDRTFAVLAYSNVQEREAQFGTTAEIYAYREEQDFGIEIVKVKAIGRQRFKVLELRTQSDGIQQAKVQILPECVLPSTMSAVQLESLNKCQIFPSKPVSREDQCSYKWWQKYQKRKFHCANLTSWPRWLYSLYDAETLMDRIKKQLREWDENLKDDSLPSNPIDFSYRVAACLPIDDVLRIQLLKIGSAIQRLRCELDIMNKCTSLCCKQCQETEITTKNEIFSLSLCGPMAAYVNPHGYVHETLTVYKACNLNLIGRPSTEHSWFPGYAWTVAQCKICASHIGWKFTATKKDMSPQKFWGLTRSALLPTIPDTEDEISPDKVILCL
6×His-CRBN-DDB1 protein, sequence (Q16531 whole entry partner): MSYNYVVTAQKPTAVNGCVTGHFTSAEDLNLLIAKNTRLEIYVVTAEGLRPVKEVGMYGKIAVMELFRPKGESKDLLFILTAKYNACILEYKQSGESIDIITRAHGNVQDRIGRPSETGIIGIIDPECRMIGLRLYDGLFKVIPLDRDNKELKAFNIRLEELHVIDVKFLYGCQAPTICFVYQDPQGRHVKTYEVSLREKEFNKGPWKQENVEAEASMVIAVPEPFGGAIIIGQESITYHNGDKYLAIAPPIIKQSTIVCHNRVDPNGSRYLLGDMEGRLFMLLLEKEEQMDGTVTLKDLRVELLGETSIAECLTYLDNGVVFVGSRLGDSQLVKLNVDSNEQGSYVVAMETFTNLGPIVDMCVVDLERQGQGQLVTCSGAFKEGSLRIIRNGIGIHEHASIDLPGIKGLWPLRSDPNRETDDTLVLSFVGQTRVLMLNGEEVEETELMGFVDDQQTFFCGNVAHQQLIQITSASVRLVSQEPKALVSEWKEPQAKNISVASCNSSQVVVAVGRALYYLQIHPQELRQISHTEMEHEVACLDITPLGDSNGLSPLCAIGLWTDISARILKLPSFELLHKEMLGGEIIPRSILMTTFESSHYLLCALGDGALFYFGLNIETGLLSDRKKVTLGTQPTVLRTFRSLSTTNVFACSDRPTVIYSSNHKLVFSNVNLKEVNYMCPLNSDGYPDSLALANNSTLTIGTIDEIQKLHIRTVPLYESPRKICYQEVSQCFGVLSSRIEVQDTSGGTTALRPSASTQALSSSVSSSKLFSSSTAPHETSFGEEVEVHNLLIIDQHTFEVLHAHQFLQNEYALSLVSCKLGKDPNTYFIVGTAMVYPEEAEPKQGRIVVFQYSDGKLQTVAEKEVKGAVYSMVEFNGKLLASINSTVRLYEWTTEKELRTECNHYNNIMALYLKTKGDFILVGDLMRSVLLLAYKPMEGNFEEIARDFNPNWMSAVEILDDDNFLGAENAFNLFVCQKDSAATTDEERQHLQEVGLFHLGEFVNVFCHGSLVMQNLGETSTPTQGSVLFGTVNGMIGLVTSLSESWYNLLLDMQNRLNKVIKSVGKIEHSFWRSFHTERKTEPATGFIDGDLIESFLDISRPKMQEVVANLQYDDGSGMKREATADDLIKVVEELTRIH

SMILES	IC50 [nM]
O=C1CCC(N2Cc3cc(NC(=O)c4ccc(-c5ccn[nH]5)cc4)ccc3C2=O)C(=O)N1 (stereo not shown) [Compound 21, N-(2-(2,6-dioxopiperidin-3-yl)-1-oxoisoindolin-5-yl)-4-(1H-pyrazol-5-yl)benzamide]	1000 to 10000
O=C1CCC(N2Cc3cc(NC(=O)c4ccc(Cl)cc4)ccc3C2=O)C(=O)N1 (stereo not shown) [Compound 13, 4-chloro-N-(2-(2,6-dioxopiperidin-3-yl)-1-oxoisoindolin-5-yl)benzamide]	< 1000
O=C1CCC(N2Cc3cc(C(=O)Nc4ccc(F)cc4)ccc3C2=O)C(=O)N1 (stereo not shown) [Compound 16, 2-(2,6-dioxopiperidin-3-yl)-N-(4-fluorophenyl)-1-oxoisoindoline-5-carboxamide]	1000 to 10000
O=C1CCC(N2Cc3cc(NC(=O)c4ccc5nc[nH]c5c4)ccc3C2=O)C(=O)N1 (stereo not shown) [Compound 27, N-(2-(2,6-dioxopiperidin-3-yl)-1-oxoisoindolin-5-yl)-1H-benzo[d]imidazole-6-carboxamide]	< 1000
CC(N)c1ccc(C(=O)Nc2ccc3c(c2)CN(C2CCC(=O)NC2=O)C3=O)cc1 (stereo not shown) [Compound 29, 4-(1-aminoethyl)-N-(2-(2,6-dioxopiperidin-3-yl)-1-oxoisoindolin-5-yl)benzamide]	1000 to 10000
O=C1CCC(N2Cc3cc(NC(=O)c4cccc(C(F)(F)F)c4)ccc3C2=O)C(=O)N1 (stereo not shown) [Compound 12, N-(2-(2,6-dioxopiperidin-3-yl)-1-oxoisoindolin-5-yl)-3-(trifluoromethyl)benzamide]	< 1000
CC(C)(O)c1ccc(C(=O)Nc2ccc3c(c2)CN(C2CCC(=O)NC2=O)C3=O)cc1 (stereo not shown) [Compound 22, N-(2-(2,6-dioxopiperidin-3-yl)-1-oxoisoindolin-5-yl)-4-(2-hydroxypropan-2-yl)benzamide]	1000 to 10000
Cc1ccc(C(=O)Nc2ccc3c(c2)C(=O)N(C2CCC(=O)NC2=O)C3=O)cc1 (stereo not shown) [Compound 1, N-(2-(2,6-dioxopiperidin-3-yl)-1,3-dioxolsoindolin-5-yl)-4-methylbenzamide]	1000 to 10000
Cc1ccc2c(Nc3ccc4c(c3)CN(C3CCC(=O)NC3=O)C4=O)noc2c1 (stereo not shown) [Compound 19, 3-(5-((6-methylbenzo[d]isoxazol-3-yl)amino)-1-oxoisoindolin-2-yl)piperidine-2,6-dione]	< 1000
O=C1CCC(N2Cc3cc(NC(=O)c4ccccc4)ccc3C2=O)C(=O)N1 (stereo not shown) [Compound 4, N-(2-(2,6-dioxopiperidin-3-yl)-1-oxoisoindolin-5-yl)benzamide]	< 1000
O=C1CCC(N2Cc3cc(NC(=O)Cc4ccccc4Br)ccc3C2=O)C(=O)N1 (stereo not shown) [Compound 25, 2-(2-bromophenyl)-N-(2-(2,6-dioxopiperidin-3-yl)-1-oxoisoindolin-5-yl)acetamide]	< 1000
O=C1CCC(N2Cc3cc(NC(=O)Cc4ccc(O)cc4)ccc3C2=O)C(=O)N1 (stereo not shown) [Compound 24, N-(2-(2,6-dioxopiperidin-3-yl)-1-oxoisoindolin-5-yl)-2-(4-hydroxyphenyl)acetamide]	< 1000
NC1(c2ccc(C(=O)Nc3ccc4c(c3)CN(C3CCC(=O)NC3=O)C4=O)cc2)CCC1 (stereo not shown) [Compound 30, 4-(1-aminocyclobutyl)-N-(2-(2,6-dioxopiperidin-3-yl)-1-oxoisoindolin-5-yl)benzamide]	1000 to 10000
Cc1ccc(NC(=O)Nc2ccc3c(c2)CN(C2CCC(=O)NC2=O)C3=O)cc1 (stereo not shown) [Compound 17, 1-(2-(2,6-dioxopiperidin-3-yl)-1-oxoisoindolin-5-yl)-3-(p-tolyl)urea]	1000 to 10000
O=C1CCC(N2Cc3cc(NC(=O)c4ccccc4C(F)(F)F)ccc3C2=O)C(=O)N1 (stereo not shown) [Compound 10, N-(2-(2,6-dioxopiperidin-3-yl)-1-oxoisoindolin-5-yl)-2-(trifluoromethyl)benzamide]	< 1000
Cc1ccc(C(=O)Nc2ccc3c(c2)CN(C2CCC(=O)NC2=O)C3=O)cc1 (stereo not shown) [Compound 2, N-(2-(2,6-dioxopiperidin-3-yl)-1-oxoisoindolin-5-yl)-4-methylbenzamide]	< 1000
CN1CCN(Cc2ccc(C(=O)Nc3ccc4c(c3)CN(C3CCC(=O)NC3=O)C4=O)cc2)CC1 (stereo not shown) [Compound 31]	1000 to 10000
O=C1CCC(N2Cc3cc(NC(=O)c4ccccc4Oc4ccccc4)ccc3C2=O)C(=O)N1 (stereo not shown) [Compound 23, N-(2-(2,6-dioxopiperidin-3-yl)-1-oxoisoindolin-5-yl)-2-phenoxybenzamide]	< 1000

Now from value to compound:

IC50 [nM]	SMILES
1000 to 10000	N#Cc1ccccc1C(=O)Nc1ccc2c(c1)CN(C1CCC(=O)NC1=O)C2=O (stereo not shown) [Compound 51, 2-cyano-N-(2-(2,6-dioxopiperidin-3-yl)-1-oxoisoindolin-5-yl)benzamide]
< 1000	O=C1CCC(N2Cc3cc(NC(=O)COc4ccccc4)ccc3C2=O)C(=O)N1 (stereo not shown) [Compound 64, N-(2-(2,6-dioxopiperidin-3-yl)-1-oxoisoindolin-5-yl)-2-phenoxyacetamide]
1000 to 10000	COc1ccccc1C(=O)Nc1ccc2c(c1)CN(C1CCC(=O)NC1=O)C2=O (stereo not shown) [Compound 34, N-(2-(2,6-dioxopiperidin-3-yl)-1-oxoisoindolin-5-yl)-2-methoxybenzamide]
1000 to 10000	COc1cc(C)cc(C(=O)Nc2ccc3c(c2)CN(C2CCC(=O)NC2=O)C3=O)c1 (stereo not shown) [Compound 61, N-(2-(2,6-dioxopiperidin-3-yl)-1-oxoisoindolin-5-yl)-3-methoxy-5-methylbenzamide]
1000 to 10000	COc1cc(F)cc(C(=O)Nc2ccc3c(c2)CN(C2CCC(=O)NC2=O)C3=O)c1 (stereo not shown) [Compound 59, N-(2-(2,6-dioxopiperidin-3-yl)-1-oxoisoindolin-5-yl)-3-fluoro-5-methoxybenzamide]
1000 to 10000	CCOc1cc(C)cc(C(=O)Nc2ccc3c(c2)CN(C2CCC(=O)NC2=O)C3=O)c1 (stereo not shown) [Compound 58, N-(2-(2,6-dioxopiperidin-3-yl)-1-oxoisoindolin-5-yl)-3-ethoxy-5-methylbenzamide]
< 1000	O=C1CCC(N2Cc3cc(Nc4noc5ccccc45)ccc3C2=O)C(=O)N1 (stereo not shown) [Compound 38, 3-(5-(benzo[d]isoxazol-3-ylamino)-1-oxoisoindolin-2-yl)piperidine-2,6-dione]
1000 to 10000	O=C1CCC(N2Cc3cc(NC(=O)c4ccc(C5CC5)cc4)ccc3C2=O)C(=O)N1 (stereo not shown) [Compound 48, 4-cyclopropyl-N-(2-(2,6-dioxopiperidin-3-yl)-1-oxoisoindolin-5-yl)benzamide]
1000 to 10000	O=C1CCC(N2Cc3cc(NC(=O)c4ccccc4C4CC4)ccc3C2=O)C(=O)N1 (stereo not shown) [Compound 49, 2-cyclopropyl-N-(2-(2,6-dioxopiperidin-3-yl)-1-oxoisoindolin-5-yl)benzamide]
1000 to 10000	Cc1ccccc1C(=O)Nc1ccc2c(c1)CN(C1CCC(=O)NC1=O)C2=O (stereo not shown) [Compound 33, N-(2-(2,6-dioxopiperidin-3-yl)-1-oxoisoindolin-5-yl)-2-methylbenzamide]
1000 to 10000	CC(C)c1cccc(C(=O)Nc2ccc3c(c2)CN(C2CCC(=O)NC2=O)C3=O)c1 (stereo not shown) [Compound 41, N-(2-(2,6-dioxopiperidin-3-yl)-1-oxoisoindolin-5-yl)-3-isopropylbenzamide]
1000 to 10000	O=C1CCC(N2Cc3cc(NC(=O)c4ccc(CN5CCOCC5)cc4)ccc3C2=O)C(=O)N1 (stereo not shown) [Compound 32, N-(2-(2,6-dioxopiperidin-3-yl)-1-oxoisoindolin-5-yl)-4-(morpholinomethyl)benzamide]
< 1000	COc1ccc(C(=O)Nc2ccc3c(c2)CN(C2CCC(=O)NC2=O)C3=O)cc1 (stereo not shown) [Compound 40, N-(2-(2,6-dioxopiperidin-3-yl)-1-oxoisoindolin-5-yl)-4-methoxybenzamide]

— patent US20260014133A1, “SUBSTITUTED 3-(l-OXOISOINDOLIN-2-YL)PIPERIDINE-2,6-DIONE/2-(2,6-DIOXOPIPERIDIN-3-YL)ISOINDOLINE-l,3-DIONE ANALOGS AS MODULATORS OF CEREBLON PROTEIN” (St. Jude's Chidren's Research Hospital, Inc., priority 2022, published 2026)
